From ChEMBL document CHEMBL5625219, “Design, synthesis fusidic acid derivatives alleviate acute lung injury via inhibiting MAPK/NF-κB/NLRP3 pathway” (Eur J Med Chem, 2023)
Calls of active or inactive are those of the source.

Key:
Format in all cases: functional, organism-based
Settings in all cases: time 3.0 day
[1] = system: Mus musculus; test: (§1) Anti-inflammatory activity in LPS-induced BALB/c mouse model of […] assessed as attenuation of inflammatory cell infiltration in lungs at 10 mg/kg, po preadministered with compound for 3 days followed by LPS stimulation for 6 hrs after 1 hrs compound administration on day 3 by H&E staining based analysis
[2] = system: Mus musculus; test: as §1, with “lung alveolar hemorrhage” for “inflammatory cell infiltration in lungs”
[3] = system: Mus musculus; test: (§2) Anti-inflammatory activity in LPS-induced BALB/c mouse model of […] assessed as inhibition of LPS-induced increase in lung W/D ratio at 10 mg/kg, po preadministered with compound for 3 days followed by LPS stimulation for 6 hrs after 1 hrs compound administration on day 3
[4] = system: Mus musculus; test: as §2, with “increase in NO production in BALF at 10” for “increase in lung W/D ratio at 10”, “day 3 by Griess reagent based method” for “day 3”
[5] = system: Mus musculus; test: as §2, with “increase in IL-6 expression in BALF at 10” for “increase in lung W/D ratio at 10”, “day 3 by ELISA” for “day 3”
[6] = system: Mus musculus; test: as §2, with “increase in TNF-alpha expression in BALF at 10” for “increase in lung W/D ratio at 10”, “day 3 by ELISA” for “day 3”
[7] = system: Mus musculus; test: as §2, with “increase in NO production in serum at 10” for “increase in lung W/D ratio at 10”, “day 3 by Griess reagent based method” for “day 3”
[8] = system: Mus musculus; test: as §2, with “increase in IL-6 expression in serum at 10” for “increase in lung W/D ratio at 10”, “day 3 by ELISA” for “day 3”
[9] = system: Mus musculus; test: as §2, with “increase in TNF-alpha expression in serum at 10” for “increase in lung W/D ratio at 10”, “day 3 by ELISA” for “day 3”
[10] = system: Mus musculus; test: (§3) In vivo inhibition of NFkappaB activation in LPS-induced BALB/c mouse model of […] assessed as inhibition of NFkappaB degradation at 10 mg/kg, po preadministered with compound for 3 days followed by LPS stimulation for 6 hrs after 1 hrs compound administration on day 3 by Western blot analysis
[11] = system: Mus musculus; test: as §3, with “inhibition of IkappaBalpha degradation at” for “inhibition of NFkappaB degradation at”

Cc1ccc(-c2cc(C(F)(F)F)nn2-c2ccc(S(N)(=O)=O)cc2)cc1
active: Activity [1] | Activity [2] | Activity [3] | Activity [4] | Activity [5] | Activity [6] | Activity [7] | Activity [8] | Activity [9] | inhibition [10] | inhibition [11]
